Measurements from PubChem BioAssay AID330 (DTP/NCI, 2004).
Where “and” joins values, the source holds several entries; their conditions need not be identical. Identical values can stand only once. Toxic doses and inconclusive results are not listed. Rule for the calls: active = survival T/C of 150% or more; inactive = T/C below 125% in these data.

System: P388 leukemia ip, CD2F1 mice, survival T/C
Assay: NCI In Vivo Anticancer Drug Screen. Data for tumor model P388 Leukemia (intraperitoneal) in CD2F1 (CDF1) mice
Conditions: endpoint: median survival time, higher = longer survival
Outline: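 Mice carrying the transplanted tumor received test compound or vehicle. Survival was recorded in each group, and the value is the treated-group measurement divided by that of the vehicle-treated control group.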

[1] = dose: 60.0 mg/kg/injection, schedule: Q01DX005 (ip), vehicle: saline with Tween-80
[2] = dose: 120.0 mg/kg/injection, schedule: Q01DX005 (ip), vehicle: saline with Tween-80
[3] = dose: 240.0 mg/kg/injection, schedule: Q01DX005 (ip), vehicle: saline with Tween-80
[4] = dose: 50.0 mg/kg/injection, schedule: Q01DX005 (ip), vehicle: saline with Tween-80
[5] = dose: 100.0 mg/kg/injection, schedule: Q01DX005 (ip), vehicle: saline with Tween-80
[6] = dose: 200.0 mg/kg/injection, schedule: Q01DX005 (ip), vehicle: saline with Tween-80
[7] = dose: 50.0 mg/kg/injection, schedule: Q01DX009 (ip), vehicle: saline
[8] = dose: 100.0 mg/kg/injection, schedule: Q01DX009 (ip), vehicle: saline with Tween-80
[9] = dose: 200.0 mg/kg/injection, schedule: Q01DX009 (ip), vehicle: saline with Tween-80
[10] = dose: 400.0 mg/kg/injection, schedule: Q01DX009 (ip), vehicle: saline with Tween-80
[11] = dose: 50.0 mg/kg/injection, schedule: Q01DX005 (ip), vehicle: Klucel (hydroxypropylcellulose) (HPC)
[12] = dose: 100.0 mg/kg/injection, schedule: Q01DX005 (ip), vehicle: Klucel (hydroxypropylcellulose) (HPC)
[13] = dose: 200.0 mg/kg/injection, schedule: Q01DX005 (ip), vehicle: Klucel (hydroxypropylcellulose) (HPC)
[14] = dose: 25.0 mg/kg/injection, schedule: Q01DX005 (ip), vehicle: Klucel (hydroxypropylcellulose) (HPC)
[15] = dose: 50.0 mg/kg/injection, schedule: Q01DX009 (ip), vehicle: saline with Tween-80
[16] = dose: 25.0 mg/kg/injection, schedule: Q01DX009 (ip), vehicle: Klucel (hydroxypropylcellulose) (HPC)
[17] = dose: 50.0 mg/kg/injection, schedule: Q01DX009 (ip), vehicle: Klucel (hydroxypropylcellulose) (HPC)
[18] = dose: 100.0 mg/kg/injection, schedule: Q01DX009 (ip), vehicle: Klucel (hydroxypropylcellulose) (HPC)
[19] = dose: 200.0 mg/kg/injection, schedule: Q01DX009 (ip), vehicle: Klucel (hydroxypropylcellulose) (HPC)
[20] = dose: 100.0 mg/kg/injection, schedule: Q04DX003 (ip), vehicle: saline
[21] = dose: 200.0 mg/kg/injection, schedule: Q04DX003 (ip), vehicle: saline
[22] = dose: 400.0 mg/kg/injection, schedule: Q04DX003 (ip), vehicle: saline

Measured: T/C

COc1ccccc1C(c1cc2c(cc1O)OCO2)N1CCOCC1 (stereo not given)
inactive: [1] 117 % of control | [2] 115 % of control | [3] 122 % of control

CC1(C)CC2(Nc3ccccc3N2)C2=C(O1)C(=O)OC2
inactive: [1] 101 % of control | [2] 103 % of control | [3] 92 % of control

CC[C@H](C)[C@H](NC(=O)OC(C)(C)C)C(=O)ON1C(=O)CCC1=O
inactive: [4] 109 % of control | [5] 113 % of control | [6] 109 % of control

CC1CCCN(CCSSCCN2CCCC(C)C2)C1 (stereo not given)
inactive: dose: 12.5 mg/kg/injection, schedule: Q01DX009 (ip), vehicle: saline 109 % of control | dose: 25.0 mg/kg/injection, schedule: Q01DX009 (ip), vehicle: saline 113 % of control | [7] 113 % of control

C[Si](C)(CCCOCC1CO1)O[Si](C)(C)CCCOCC1CO1 (stereo not given)
inactive: [8] 100 % of control | [9] 101 % of control | [10] 114 % of control

C[CH2][Sn]([CH2]C)([S]CCS(=O)(=O)O)[S]CCS(=O)(=O)O (tested in a mixture with another compound)
inactive: dose: 7.5 mg/kg/injection, schedule: Q01DX005 (ip), vehicle: saline 123 % of control

CC(=NC(C)C)N1CCCCC1
inactive: [7] 101 % of control | dose: 100.0 mg/kg/injection, schedule: Q01DX009 (ip), vehicle: saline 101 % of control

Nc1nc(SC2CCCCC2)c2[nH]cnc2n1
inactive: [8] 90 % of control | dose: 100.0 mg/kg/injection, schedule: Q04DX003 (ip), vehicle: saline with Tween-80 100 % of control | [9] 95 % of control | dose: 200.0 mg/kg/injection, schedule: Q04DX003 (ip), vehicle: saline with Tween-80 116 % of control | [10] 90 % of control | dose: 400.0 mg/kg/injection, schedule: Q04DX003 (ip), vehicle: saline with Tween-80 108 % of control

Cc1c(N=Nc2c(S(=O)(=O)O)cc3cc(S(=O)(=O)O)c(N=Nc4c(C)n(C)n(-c5ccccc5)c4=O)c(O)c3c2O)c(=O)n(-c2ccccc2)n1C
inactive: dose: 60.0 mg/kg/injection, schedule: Q01DX005 (ip), vehicle: suspension in saline 101 % of control | dose: 120.0 mg/kg/injection, schedule: Q01DX005 (ip), vehicle: suspension in saline 96 % of control | dose: 240.0 mg/kg/injection, schedule: Q01DX005 (ip), vehicle: suspension in saline 110 % of control

CC(C)(C)c1cc(C(O)(C(F)(F)F)C(F)(F)F)c(Cl)c(C(O)(C(F)(F)F)C(F)(F)F)c1
inactive: [11] 94 % of control | [12] 90 % of control | [13] 92 % of control

O=c1[nH]cnc2cc([N+](=O)[O-])ccc12
inactive: dose: 12.0 mg/kg/injection, schedule: Q01DX005 (ip), vehicle: Klucel (hydroxypropylcellulose) (HPC) 101 % of control | [14] 101 % of control | [11] 101 % of control and 106 % of control | [12] 111 % of control

Cc1cc(=O)n(-c2ccc(S(N)(=O)=O)cc2)c(C)c1C(=O)O
inactive: [4] 98 % of control | [5] 96 % of control | [6] 103 % of control

O=C(CC(O)(C(F)(F)F)C(F)(F)F)c1cc(CC(=O)C(O)(C(F)(F)F)C(F)(F)F)cc(CC(=O)C(O)(C(F)(F)F)C(F)(F)F)c1
inactive: dose: 25.0 mg/kg/injection, schedule: Q01DX009 (ip), vehicle: saline with Tween-80 97 % of control | [15] 103 % of control | [8] 100 % of control | [9] 105 % of control | [10] 115 % of control

O=C1C(c2ccccc2)=C(c2ccccc2)/C1=C/c1ccc(F)cc1
inactive: dose: 50.0 mg/kg/injection, schedule: Q01DX001 (ip), vehicle: Klucel (hydroxypropylcellulose) (HPC) 112 % of control | dose: 100.0 mg/kg/injection, schedule: Q01DX001 (ip), vehicle: Klucel (hydroxypropylcellulose) (HPC) 106 % of control | dose: 200.0 mg/kg/injection, schedule: Q01DX001 (ip), vehicle: Klucel (hydroxypropylcellulose) (HPC) 118 % of control

CSCCC(N)[P+](=O)O (stereo not given)
inactive: dose: 50.0 mg/kg/injection, schedule: Q01DX005 (ip), vehicle: saline 99 % of control | dose: 100.0 mg/kg/injection, schedule: Q01DX005 (ip), vehicle: saline 95 % of control | dose: 200.0 mg/kg/injection, schedule: Q01DX005 (ip), vehicle: saline 99 % of control

c1ccc2c(c1)[nH]c1c2c(N2CCOCC2)nn2nnnc12
inactive: dose: 100.0 mg/kg/injection, schedule: Q01DX001 (ip), vehicle: saline with Tween-80 107 % of control | dose: 200.0 mg/kg/injection, schedule: Q01DX001 (ip), vehicle: saline with Tween-80 106 % of control | dose: 400.0 mg/kg/injection, schedule: Q01DX001 (ip), vehicle: saline with Tween-80 109 % of control

CC1C2c3ccccc3C(c3ccccc32)C1CN1C(CCO)COC1c1ccccc1 (stereo not given)
inactive: [1] 92 % of control | [2] 87 % of control | [3] 90 % of control

C=C1CC/C=C(\C)CCC2C1CC2(C)C (stereo not given)
inactive: dose: 12.5 mg/kg/injection, schedule: Q01DX009 (ip), vehicle: Klucel (hydroxypropylcellulose) (HPC) 100 % of control | [16] 100 % of control | [17] 102 % of control | [18] 105 % of control | [19] 113 % of control

O=C(O)CC(O)CCCCCO (stereo not given)
inactive: [15] 110 % of control | [8] 110 % of control | [20] 106 % of control | [9] 100 % of control | [21] 113 % of control | [22] 100 % of control

O=C1c2ccccc2C(=O)N1/N=N/N1C(=O)c2ccccc2C1=O
inactive: [14] 99 % of control | [11] 102 % of control | [12] 110 % of control | [13] 106 % of control

Oc1ccc(/C=C/c2cc(O)cc(O)c2)cc1
inactive: dose: 18.5 mg/kg/injection, schedule: Q01DX009 (ip), vehicle: Klucel (hydroxypropylcellulose) (HPC) 101 % of control | dose: 37.0 mg/kg/injection, schedule: Q01DX009 (ip), vehicle: Klucel (hydroxypropylcellulose) (HPC) 100 % of control | dose: 74.0 mg/kg/injection, schedule: Q01DX009 (ip), vehicle: Klucel (hydroxypropylcellulose) (HPC) 93 % of control

COC(=O)c1nnc(C(=O)OC)c2c1c1ccccc1n2C(=O)c1ccccc1
inactive: [1] 105 % of control | [2] 93 % of control | [3] 91 % of control

COC1/C=C\OC2(C)Oc3c(C)c(O)c4c(O)c(c5[nH]c(-c6ccccc6)nc5c4c3C2=O)NC(=O)/C(C)=C\C=C\C(C)C(O)C(C)C(O)C(C)C(OC(C)=O)C1C (stereo not given)
inactive: [16] 106 % of control | [17] 100 % of control | [18] 88 % of control

COC(=O)CCC(=O)C(C#N)c1ccc(Cl)c(Cl)c1 (stereo not given)
inactive: [1] 101 % of control | [2] 101 % of control

COC(=O)c1cc2c(C(=O)OC)cc1CSCc1cccc(c1)CSC2
inactive: dose: 12.5 mg/kg/injection, schedule: Q01DX009 (ip), vehicle: suspension in saline 90 % of control | dose: 25.0 mg/kg/injection, schedule: Q01DX009 (ip), vehicle: suspension in saline 87 % of control | dose: 50.0 mg/kg/injection, schedule: Q01DX009 (ip), vehicle: suspension in saline 97 % of control

CCc1ccccc1NC(=O)NCC(C)C
inactive: [17] 105 % of control | [18] 97 % of control | [19] 105 % of control

[O-]/[N+]1=[N+](\[O-])c2ccccc2CCc2ccccc21
inactive: [1] 100 % of control | [2] 102 % of control | [3] 105 % of control

Cc1nc2ccncn2n1
inactive: [20] 99 % of control | [21] 95 % of control | [22] 93 % of control

Cc1ccc2ccc(N(C)C)cc2n1
inactive: [15] 100 % of control | [8] 107 % of control

O=c1cnn(C2OC(CO)C(O)C2Cl)c(=O)[nH]1 (stereo not given)
inactive: dose: 4.06 mg/kg/injection, schedule: Q01DX009 (ip), vehicle: saline 99 % of control | dose: 8.12 mg/kg/injection, schedule: Q01DX009 (ip), vehicle: saline 108 % of control | dose: 16.25 mg/kg/injection, schedule: Q01DX009 (ip), vehicle: saline 101 % of control | dose: 32.5 mg/kg/injection, schedule: Q01DX009 (ip), vehicle: saline 101 % of control | dose: 65.0 mg/kg/injection, schedule: Q01DX009 (ip), vehicle: saline 106 % of control | dose: 130.0 mg/kg/injection, schedule: Q01DX009 (ip), vehicle: saline 102 % of control
